For one assay, the target named is p110γ (Homo sapiens (Human), UniProt P48736). The experiment in a line: PI3K γ inhibition assay (TLC lipid kinase or HTRF).
p110γ, sequence (P48736 whole entry): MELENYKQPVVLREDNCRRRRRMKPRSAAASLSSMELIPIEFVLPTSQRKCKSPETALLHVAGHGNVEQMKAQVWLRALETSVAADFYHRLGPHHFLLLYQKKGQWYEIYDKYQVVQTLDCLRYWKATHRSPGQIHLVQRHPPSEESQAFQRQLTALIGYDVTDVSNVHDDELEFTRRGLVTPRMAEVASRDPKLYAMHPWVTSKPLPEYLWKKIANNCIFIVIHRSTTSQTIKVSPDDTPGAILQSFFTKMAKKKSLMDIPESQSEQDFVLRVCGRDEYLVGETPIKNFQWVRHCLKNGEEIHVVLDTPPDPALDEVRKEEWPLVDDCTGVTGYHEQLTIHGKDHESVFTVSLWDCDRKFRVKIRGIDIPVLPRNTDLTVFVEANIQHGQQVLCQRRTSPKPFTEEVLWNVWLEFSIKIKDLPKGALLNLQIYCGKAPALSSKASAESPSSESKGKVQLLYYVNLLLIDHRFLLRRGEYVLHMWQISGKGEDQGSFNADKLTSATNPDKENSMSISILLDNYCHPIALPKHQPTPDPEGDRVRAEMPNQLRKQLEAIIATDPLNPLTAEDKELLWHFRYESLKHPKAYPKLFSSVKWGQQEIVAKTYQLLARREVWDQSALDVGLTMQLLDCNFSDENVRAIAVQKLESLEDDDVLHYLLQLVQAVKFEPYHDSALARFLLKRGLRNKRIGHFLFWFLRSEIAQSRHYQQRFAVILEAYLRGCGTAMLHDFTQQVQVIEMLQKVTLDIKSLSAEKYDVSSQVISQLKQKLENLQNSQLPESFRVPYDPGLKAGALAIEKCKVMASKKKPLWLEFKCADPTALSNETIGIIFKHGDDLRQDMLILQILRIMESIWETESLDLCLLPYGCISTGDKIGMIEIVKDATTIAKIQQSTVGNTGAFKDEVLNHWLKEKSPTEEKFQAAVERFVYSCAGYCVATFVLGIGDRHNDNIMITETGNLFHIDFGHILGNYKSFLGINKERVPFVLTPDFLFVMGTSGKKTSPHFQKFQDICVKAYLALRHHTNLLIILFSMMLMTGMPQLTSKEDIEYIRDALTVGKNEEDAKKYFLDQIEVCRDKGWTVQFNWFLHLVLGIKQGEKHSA
Conditions: not given
It counts as biochemical. Here is the method:
(§1) Class I PI3-Ks can be either purchased (p110α/p85α, p110β/p85α, p110δ/p85α from Upstate, and p110γ from Sigma) or expressed as previously described (Knight et al., 2004). IC50 values are measured using either a standard TLC assay for lipid kinase activity (described below) or a high-throughput membrane capture assay. Kinase reactions are performed by preparing a reaction mixture containing kinase, inhibitor (2% DMSO final concentration), buffer (25 mM HEPES, pH 7.4, 10 mM MgCl2), and freshly sonicated phosphatidylinositol (100 μg/ml). Reactions are initiated by the addition of ATP containing 10 μCi of γ-32P-ATP to a final concentration 10 or 100 μM and allowed to proceed for 5 minutes at room temperature. For TLC analysis, reactions are then terminated by the addition of […] 1N HCl followed by 160 μl CHCl3:MeOH (1:1). The biphasic mixture is vortexed, briefly centrifuged, and the organic phase is transferred to a new tube using a gel loading pipette tip precoated with CHCl3. This extract is spotted on TLC plates and developed for 3-4 hours in a 65:35 solution of n-propanol:1M acetic acid. The TLC plates are then dried, exposed to a phosphorimager screen (Storm, Amersham), and quantitated. For each compound, kinase activity is measured at 10-12 inhibitor concentrations representing two-fold dilutions from the highest concentration tested (typically, 200 μM).
(§2) Other commercial kits or systems for assaying PI3-K activities are available. The commercially available kits or systems can be used to screen for inhibitors and/or agonists of PI3-Ks including but not limited to PI 3-Kinase α, β, δ, and γ. Anr exemplary system is PI3-Kinase (human) HTRF™ Assay from Upstate. […] Briefly, the assay is a time resolved FRET assay that indirectly measures PIP3 product formed by the activity of a PI3-K. The kinase reaction is performed in a microtitre plate (e.g., a 384 well microtitre plate). The total reaction volume is approximately 20 ul per well. In the first step, each well receives 2 ul of test compound in 20% dimethylsulphoxide resulting in a 2% DMSO final concentration. Next, approximately 14.5 ul of a kinase/PIP2 mixture (diluted in 1× reaction buffer) is added per well for a final concentration of 0.25-0.3 ug/ml kinase and 10 uM PIP2. The plate is sealed and incubated for 15 minutes at room temperature. To start the reaction, 3.5 ul of ATP (diluted in 1× reaction buffer) is added per well for a final concentration of 10 uM ATP. The plate is sealed and incubated for 1 hour at room temperature. The reaction is stopped by adding 5 ul of Stop Solution per well and then 5 ul of Detection Mix is added per well. The plate is sealed, incubated for 1 hour at room temperature, and then read on an appropriate plate reader. Data is analyzed and IC50s are generated using GraphPad Prism 5.
p110β/p85α, sequence (P42338 whole entry, looked up): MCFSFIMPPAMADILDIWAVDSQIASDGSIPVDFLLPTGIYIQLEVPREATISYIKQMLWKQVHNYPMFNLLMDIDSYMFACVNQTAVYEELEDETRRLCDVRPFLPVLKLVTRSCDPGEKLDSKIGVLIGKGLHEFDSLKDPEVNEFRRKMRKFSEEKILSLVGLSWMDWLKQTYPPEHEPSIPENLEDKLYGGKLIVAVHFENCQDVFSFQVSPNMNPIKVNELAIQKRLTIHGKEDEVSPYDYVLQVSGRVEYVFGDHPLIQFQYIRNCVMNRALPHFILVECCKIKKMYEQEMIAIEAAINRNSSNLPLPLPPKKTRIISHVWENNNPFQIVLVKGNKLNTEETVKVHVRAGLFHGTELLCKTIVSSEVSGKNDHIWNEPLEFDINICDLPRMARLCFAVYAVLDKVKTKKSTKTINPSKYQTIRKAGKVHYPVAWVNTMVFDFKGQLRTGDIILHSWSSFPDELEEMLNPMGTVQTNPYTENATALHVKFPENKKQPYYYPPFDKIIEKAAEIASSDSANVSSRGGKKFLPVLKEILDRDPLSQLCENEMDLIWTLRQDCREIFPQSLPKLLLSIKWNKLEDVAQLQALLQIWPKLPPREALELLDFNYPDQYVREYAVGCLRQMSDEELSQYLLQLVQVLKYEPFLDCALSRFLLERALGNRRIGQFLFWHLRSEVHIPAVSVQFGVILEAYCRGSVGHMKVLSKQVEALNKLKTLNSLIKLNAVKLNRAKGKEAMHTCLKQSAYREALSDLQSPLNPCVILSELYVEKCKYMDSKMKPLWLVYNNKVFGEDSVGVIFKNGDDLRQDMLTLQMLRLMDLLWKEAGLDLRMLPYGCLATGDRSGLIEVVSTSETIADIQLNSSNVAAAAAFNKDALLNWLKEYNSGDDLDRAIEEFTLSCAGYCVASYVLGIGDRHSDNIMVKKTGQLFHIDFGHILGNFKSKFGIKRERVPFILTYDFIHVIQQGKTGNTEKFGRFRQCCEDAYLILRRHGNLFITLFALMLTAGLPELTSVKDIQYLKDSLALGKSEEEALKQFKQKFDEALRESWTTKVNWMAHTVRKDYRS
Compound `Cn1c(=O)c(Cn2nc(-c3cc(O)cc(F)c3)c3c(N)ncnc32)cc2ccccc21` [Compound 112] displayed an IC50 of 100 to 1000 nM.

On to `CC(Nc1ncnc2[nH]cnc12)c1cc2ccccc2nc1N1CCCC1` (stereo not shown) [Compound 88], for which the IC50 was over 1000 nM.

Compound `NC(=O)c1nn(Cc2cc3ccccc3nc2-c2ccccc2F)c2ncnc(N)c12` [Compound 191] gave an IC50 of over 1000 nM.

With `Nc1ncnc2c1c(-c1cccc(O)c1)nn2Cc1cc2ccccc2[nH]c1=O` [Compound 109], the half-maximal inhibitory concentration (IC50) is over 1000 nM.

For `CCn1c(=O)c(Cn2nc(-c3ccc4nc(NC(C)=O)sc4c3)c3c(N)ncnc32)nc2ccccc21` [Compound 118], the IC50 lay in the range of 100 to 1000 nM.

In turn, `CCn1c(=O)c(Cn2nc(-c3cccc(O)c3)c3c(N)ncnc32)cc2ccccc21` [Compound 115] gave a half-maximal inhibitory concentration (IC50) of over 1000 nM.

Take `Cn1c(=O)c(Cn2nc(-c3cccc(O)c3)c3c(N)ncnc32)cc2ccccc21` [Compound 111]: the IC50 is over 1000 nM.

Another assay relates to Balb/c splenic B cells. The experiment in a line: B cell activation and proliferation assay (Alamar Blue). The assay is classed as cell-based, mouse. The settings on record: Mus musculus, B-cell. The method, then: The ability of one or more subject compounds to inhibit B cell activation and proliferation is determined according to standard procedures known in the art. For example, an in vitro cellular proliferation assay is established that measures the metabolic activity of live cells. The assay is performed in a 96 well microtiter plate using Alamar Blue reduction. Balb/c splenic B cells are purified over a Ficoll-Paque™ PLUS gradient followed by magnetic cell separation using a MACS B cell Isolation Kit (Miletenyi). Cells are plated in 90 ul at 50,000 cells/well in B Cell Media (RPMI+10% FBS+Penn/Strep+50 uM bME+5 mM HEPES). A compound disclosed herein is diluted in B Cell Media and added in a 10 ul volume. Plates are incubated for 30 min at 37 C and 5% CO2 (0.2% DMSO final concentration). A 50 ul B cell stimulation cocktail is then added containing either 10 ug/ml LPS or 5 ug/ml F(ab′)2 Donkey anti-mouse IgM plus 2 ng/ml recombinant mouse IL4 in B Cell Media. Plates are incubated for 72 hours at 37° C. and 5% CO2. A volume of 15 uL of Alamar Blue reagent is added to each well and plates are incubated for 5 hours at 37 C and 5% CO2. Alamar Blue fluoresce is read at 560Ex/590Em, and IC50 or EC50 values are calculated using GraphPad Prism 5.
On the technique in general: The colour change of resazurin is a common sign of viable cells or microbes.
On to `Nc1ncnc2c1c(-c1cc(O)cc(F)c1)nn2Cc1cc2ccccc2nc1-c1ccccc1F` [Compound 19], for which the EC50 is under 100 nM.

Consider `Cc1cccc2cc(Cn3nc(-c4cc(O)cc(F)c4)c4c(N)ncnc43)c(N3CCN(C)CC3)nc12` [Compound 12], for which the EC50 was under 100 nM.

Compound `CC(C)c1ccccc1-c1nc2ccccc2cc1Cn1nc(C#C[C@@H](C)O)c2c(N)ncnc21` [Compound 16] came in with an EC50 of 100 to 1000 nM.

`COc1ccccc1-c1nc2ccccc2cc1Cn1nc(-c2cc(O)cc(F)c2)c2c(N)ncnc21` [Compound 15] yielded an EC50 of under 100 nM.

`Nc1ncnc2c1c(-c1cnc3[nH]ccc3c1)nn2Cc1cc2ccccc2nc1N1CCCC1` [Compound 23]: the EC50 is under 100 nM.

Turning to `Cc1cccc2cc(Cn3nc(I)c4c(N)ncnc43)c(N3CCN(C)CC3)nc12` [Compound 11], the EC50 was under 100 nM.

Turning to `Nc1ncnc2c1c(-c1cc(O)cc(F)c1)nn2Cc1cc2ccccc2nc1N1CCCCC1` [Compound 20], the EC50 is under 100 nM.

In turn, `Cc1cccc2cc(Cn3nc(-c4cccc(O)c4)c4c(N)ncnc43)c(N3CCN(C)CC3)nc12` [Compound 13] came in with an EC50 of under 100 nM.

As to `Nc1ncnc2c1c(-c1cc(O)cc(F)c1)nn2Cc1cc2ccccc2nc1NC1CCC1` [Compound 42], the EC50 is under 100 nM.

For another assay, the target named is p110α/p85α (Homo sapiens (Human), UniProt P42336). The experiment in a line: PI3K α inhibition assay (TLC lipid kinase or HTRF). The assay is classed as biochemical.
p110α/p85α, sequence (P42336 whole entry): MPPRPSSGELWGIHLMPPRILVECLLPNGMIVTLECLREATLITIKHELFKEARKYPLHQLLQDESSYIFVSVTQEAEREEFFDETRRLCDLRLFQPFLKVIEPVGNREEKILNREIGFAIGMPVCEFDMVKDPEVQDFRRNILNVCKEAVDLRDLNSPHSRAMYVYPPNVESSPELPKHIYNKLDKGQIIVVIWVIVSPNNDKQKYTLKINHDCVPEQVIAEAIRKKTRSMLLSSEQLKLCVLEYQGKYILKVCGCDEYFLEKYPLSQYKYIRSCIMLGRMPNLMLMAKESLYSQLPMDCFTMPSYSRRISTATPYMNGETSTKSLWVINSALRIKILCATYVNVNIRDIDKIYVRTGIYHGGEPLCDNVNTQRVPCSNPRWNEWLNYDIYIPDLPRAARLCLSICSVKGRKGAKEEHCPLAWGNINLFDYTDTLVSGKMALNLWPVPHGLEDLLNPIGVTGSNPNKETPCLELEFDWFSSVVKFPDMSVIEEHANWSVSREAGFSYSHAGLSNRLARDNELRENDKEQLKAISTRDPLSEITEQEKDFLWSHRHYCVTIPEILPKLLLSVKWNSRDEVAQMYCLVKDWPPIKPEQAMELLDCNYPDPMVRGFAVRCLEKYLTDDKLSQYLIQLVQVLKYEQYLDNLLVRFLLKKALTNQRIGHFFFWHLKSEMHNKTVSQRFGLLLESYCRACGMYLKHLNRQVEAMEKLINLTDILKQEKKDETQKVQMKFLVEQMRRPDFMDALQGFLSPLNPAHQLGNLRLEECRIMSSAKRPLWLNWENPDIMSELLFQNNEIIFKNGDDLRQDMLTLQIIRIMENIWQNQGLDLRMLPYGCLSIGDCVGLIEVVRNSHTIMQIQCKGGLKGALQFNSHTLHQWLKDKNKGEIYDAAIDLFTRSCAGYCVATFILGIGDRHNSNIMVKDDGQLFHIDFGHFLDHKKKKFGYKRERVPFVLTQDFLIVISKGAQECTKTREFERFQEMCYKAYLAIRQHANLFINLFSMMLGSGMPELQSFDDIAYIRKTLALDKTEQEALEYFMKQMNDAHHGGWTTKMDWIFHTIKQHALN
p110α/p85α, sequence (P27986 whole entry partner): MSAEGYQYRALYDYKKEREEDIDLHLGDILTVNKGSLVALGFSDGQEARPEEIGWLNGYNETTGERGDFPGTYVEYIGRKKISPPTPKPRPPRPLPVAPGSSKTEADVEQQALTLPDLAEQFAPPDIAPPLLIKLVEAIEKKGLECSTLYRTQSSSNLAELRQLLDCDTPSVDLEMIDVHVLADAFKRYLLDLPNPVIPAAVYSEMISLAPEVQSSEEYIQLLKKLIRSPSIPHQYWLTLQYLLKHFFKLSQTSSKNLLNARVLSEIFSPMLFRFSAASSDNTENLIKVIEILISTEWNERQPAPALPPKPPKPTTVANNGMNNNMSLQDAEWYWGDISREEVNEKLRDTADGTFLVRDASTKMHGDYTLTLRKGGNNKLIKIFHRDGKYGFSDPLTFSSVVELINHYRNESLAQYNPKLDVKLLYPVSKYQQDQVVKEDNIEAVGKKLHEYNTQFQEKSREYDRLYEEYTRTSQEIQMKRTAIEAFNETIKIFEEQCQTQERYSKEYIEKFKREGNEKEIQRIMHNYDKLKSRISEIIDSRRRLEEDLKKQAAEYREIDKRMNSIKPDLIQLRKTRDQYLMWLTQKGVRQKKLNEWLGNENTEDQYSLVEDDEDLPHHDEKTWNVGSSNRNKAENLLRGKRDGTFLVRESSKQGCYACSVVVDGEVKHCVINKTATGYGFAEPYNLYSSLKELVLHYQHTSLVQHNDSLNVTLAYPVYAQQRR
Conditions: not given
Here is the method:
as §1, §2
Background: In TR-FRET formats the signal depends on donor and acceptor labels being close together.
With `Cn1c(=O)c(Cn2nc(-c3cc(O)cc(F)c3)c3c(N)ncnc32)cc2ccccc21` [Compound 112], the half-inhibitory concentration (IC50) is over 1000 nM.

Turning to `CC(Nc1ncnc2[nH]cnc12)c1cc2ccccc2nc1N1CCCC1` (stereo not shown) [Compound 88], the IC50 is over 1000 nM.

In turn, `NC(=O)c1nn(Cc2cc3ccccc3nc2-c2ccccc2F)c2ncnc(N)c12` [Compound 191] gave an IC50 of over 1000 nM.

For the compound `Nc1ncnc2c1c(-c1cccc(O)c1)nn2Cc1cc2ccccc2[nH]c1=O` [Compound 109], the IC50 is over 1000 nM.

In the case of `CCn1c(=O)c(Cn2nc(-c3ccc4nc(NC(C)=O)sc4c3)c3c(N)ncnc32)nc2ccccc21` [Compound 118], the IC50 was over 1000 nM.

Turning to `CCn1c(=O)c(Cn2nc(-c3cccc(O)c3)c3c(N)ncnc32)cc2ccccc21` [Compound 115], the concentration for half-maximal inhibition (IC50) is over 1000 nM.

With `Cn1c(=O)c(Cn2nc(-c3cccc(O)c3)c3c(N)ncnc32)cc2ccccc21` [Compound 111], the 50% inhibitory concentration (IC50) was over 1000 nM.

The target in the next assay is p110δ/p85α (Homo sapiens (Human), UniProt O00329). The experiment in a line: PI3K δ inhibition assay (TLC lipid kinase or HTRF). It counts as biochemical.
p110δ/p85α, sequence (O00329 whole entry): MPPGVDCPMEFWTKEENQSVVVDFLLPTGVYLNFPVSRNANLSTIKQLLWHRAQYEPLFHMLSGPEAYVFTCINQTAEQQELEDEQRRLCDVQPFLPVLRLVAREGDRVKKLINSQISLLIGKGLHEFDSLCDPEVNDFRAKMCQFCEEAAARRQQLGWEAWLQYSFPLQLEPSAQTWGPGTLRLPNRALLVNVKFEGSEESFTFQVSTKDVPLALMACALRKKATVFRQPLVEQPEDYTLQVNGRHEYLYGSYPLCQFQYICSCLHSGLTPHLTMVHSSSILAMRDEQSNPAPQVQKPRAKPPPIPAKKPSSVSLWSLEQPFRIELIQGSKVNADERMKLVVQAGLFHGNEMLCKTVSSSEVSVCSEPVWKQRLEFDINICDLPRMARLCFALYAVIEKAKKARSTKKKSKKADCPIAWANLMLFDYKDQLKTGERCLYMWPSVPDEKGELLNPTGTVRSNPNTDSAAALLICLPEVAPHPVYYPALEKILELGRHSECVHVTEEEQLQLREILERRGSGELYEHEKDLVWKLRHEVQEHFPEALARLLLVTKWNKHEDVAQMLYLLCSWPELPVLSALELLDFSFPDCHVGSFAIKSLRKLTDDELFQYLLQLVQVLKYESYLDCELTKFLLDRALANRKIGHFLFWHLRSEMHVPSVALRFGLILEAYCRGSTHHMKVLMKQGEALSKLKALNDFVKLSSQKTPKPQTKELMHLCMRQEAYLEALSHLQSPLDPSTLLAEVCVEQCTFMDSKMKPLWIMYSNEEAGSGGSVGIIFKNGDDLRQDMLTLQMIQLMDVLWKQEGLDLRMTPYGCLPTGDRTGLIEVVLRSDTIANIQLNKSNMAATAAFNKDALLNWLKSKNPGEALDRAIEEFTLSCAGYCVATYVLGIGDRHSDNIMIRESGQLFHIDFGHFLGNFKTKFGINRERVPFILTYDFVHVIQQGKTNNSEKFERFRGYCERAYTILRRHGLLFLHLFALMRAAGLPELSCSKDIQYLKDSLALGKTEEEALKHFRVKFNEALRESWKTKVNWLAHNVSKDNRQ
p110δ/p85α, sequence (P27986 whole entry partner): as the sequence (P27986 whole entry partner) above
Conditions: not given
Here is the method: as §1, §2
`Nc1ncnc2c1c(-c1cc(O)cc(F)c1)nn2Cc1cc2ccccc2nc1-c1ccccc1F` [Compound 19] displayed an IC50 of under 100 nM.

`Cc1cccc2cc(Cn3nc(-c4cc(O)cc(F)c4)c4c(N)ncnc43)c(N3CCN(C)CC3)nc12` [Compound 12] registered an IC50 of under 100 nM.

`CC(C)c1ccccc1-c1nc2ccccc2cc1Cn1nc(C#C[C@@H](C)O)c2c(N)ncnc21` [Compound 16] registered an IC50 of under 100 nM.

With `COc1ccccc1-c1nc2ccccc2cc1Cn1nc(-c2cc(O)cc(F)c2)c2c(N)ncnc21` [Compound 15], the 50% inhibitory concentration (IC50) was under 100 nM.

Regarding `Nc1ncnc2c1c(-c1cnc3[nH]ccc3c1)nn2Cc1cc2ccccc2nc1N1CCCC1` [Compound 23], the IC50 was under 100 nM.

In the case of `Cn1c(=O)c(Cn2nc(-c3cc(O)cc(F)c3)c3c(N)ncnc32)cc2ccccc21` [Compound 112], the IC50 was under 100 nM.

In turn, `Cc1cccc2cc(Cn3nc(I)c4c(N)ncnc43)c(N3CCN(C)CC3)nc12` [Compound 11] had a half-inhibitory concentration (IC50) of under 100 nM.

For `CC(Nc1ncnc2[nH]cnc12)c1cc2ccccc2nc1N1CCCC1` (stereo not shown) [Compound 88], the IC50 lay within 100 to 1000 nM.

The compound `Nc1ncnc2c1c(-c1cc(O)cc(F)c1)nn2Cc1cc2ccccc2nc1N1CCCCC1` [Compound 20] returned an IC50 of under 100 nM.

`Cc1cccc2cc(Cn3nc(-c4cccc(O)c4)c4c(N)ncnc43)c(N3CCN(C)CC3)nc12` [Compound 13] gave an IC50 of under 100 nM.

Compound `NC(=O)c1nn(Cc2cc3ccccc3nc2-c2ccccc2F)c2ncnc(N)c12` [Compound 191] returned a concentration for half-maximal inhibition (IC50) of 100 to 1000 nM.

`Nc1ncnc2c1c(-c1cc(O)cc(F)c1)nn2Cc1cc2ccccc2nc1NC1CCC1` [Compound 42] showed an IC50 of under 100 nM.

Compound `Nc1ncnc2c1c(-c1cccc(O)c1)nn2Cc1cc2ccccc2[nH]c1=O` [Compound 109] gave a 50% inhibitory concentration (IC50) of 100 to 1000 nM.

For the compound `CCn1c(=O)c(Cn2nc(-c3ccc4nc(NC(C)=O)sc4c3)c3c(N)ncnc32)nc2ccccc21` [Compound 118], the IC50 was under 100 nM.

On to `CCn1c(=O)c(Cn2nc(-c3cccc(O)c3)c3c(N)ncnc32)cc2ccccc21` [Compound 115], for which the IC50 is 100 to 1000 nM.

For the compound `Cn1c(=O)c(Cn2nc(-c3cccc(O)c3)c3c(N)ncnc32)cc2ccccc21` [Compound 111], the IC50 fell in the range of 100 to 1000 nM.

A further assay concerns the target p110β/p85α (Homo sapiens, UniProt P42338). The experiment in a line: PI3K β inhibition assay (TLC lipid kinase or HTRF). The assay is classed as biochemical. The settings on record: PI3K β IC50. Here is the method: as §1, §2
`NC(=O)c1nn(Cc2cc3ccccc3nc2-c2ccccc2F)c2ncnc(N)c12` [Compound 191]: the IC50 is over 1000 nM.

The assay is the same for the next values; noted with them: read-out: PI3K β IC50.
`Cn1c(=O)c(Cn2nc(-c3cc(O)cc(F)c3)c3c(N)ncnc32)cc2ccccc21` [Compound 112]: the IC50 is over 1000 nM.

As to `CC(Nc1ncnc2[nH]cnc12)c1cc2ccccc2nc1N1CCCC1` (stereo not shown) [Compound 88], the IC50 was over 1000 nM.

Turning to `Nc1ncnc2c1c(-c1cccc(O)c1)nn2Cc1cc2ccccc2[nH]c1=O` [Compound 109], the IC50 is over 1000 nM.

For `CCn1c(=O)c(Cn2nc(-c3ccc4nc(NC(C)=O)sc4c3)c3c(N)ncnc32)nc2ccccc21` [Compound 118], the IC50 was over 1000 nM.

For `CCn1c(=O)c(Cn2nc(-c3cccc(O)c3)c3c(N)ncnc32)cc2ccccc21` [Compound 115], the IC50 was over 1000 nM.

`Cn1c(=O)c(Cn2nc(-c3cccc(O)c3)c3c(N)ncnc32)cc2ccccc21` [Compound 111]: the IC50 was over 1000 nM.

Broadly, the IC50 is the midpoint of a concentration-inhibition curve. By EC50 is commonly meant the concentration needed to bring the measured effect to its halfway point.

Source of the values: patent US9790228B2, “Heterocyclic kinase inhibitors” (Intellikine LLC, priority 2008, dated 2017).
